Experimental data as given in patent US10307458B2, “Peptide as absorption enhancer and composition containing same” (SOONCHUNHYANG UNIVERSITY INDUSTRY ACADEMY COOPERATION …, priority 2014, dated 2019).
Where no end group is shown, it is not given here.

Columns and labels:
in vivo = settings: male, Sprague-Dawley, rat, in vivo, inhaled or intranasal, 2.5 mg/kg
Description: (§1) Male SD (Sprague-Dawley) rats (280-300 g) were provided to adapt to each separate cage of the animal facility at least 2 days. At this point, foods and water were freely allowed to the rats, which were exposed to light for 12 hours and kept in dark for another 12 hours. One day before the testing, the rats were provided with water only and kept from eating food.
(§2) The peptides of the Preparation Examples or the Example, and mannitol(^3H-Mannitol, 14.2 Ci/mmol, PerkinElmer) were used to prepare the individual preparation groups given as follows:
(§3) The first preparation group was a control group and prepared as an aqueous solution of 5% (w/v) dextrose containing mannitol without a peptide.
(§4) The second preparation group was prepared as an aqueous solution of 5% (w/v) dextrose containing mannitol and the FCIGRL peptide of the Preparation Example 1.
(§5) The third preparation group was prepared as an aqueous solution of 5% (w/v) dextrose containing mannitol and the Ac-FCIGRL peptide of the Preparation Example 2.
(§6) The fourth preparation group was prepared as an aqueous solution of 5% (w/v) dextrose containing mannitol and the FCIGRL-NH2 peptide of the Example 1.
(§7) The male SD rats provided above 1. were divided into four groups, each having five male SD rats. The first to fourth preparation groups were nasally administered into the first to fourth rat groups, respectively.
(§8) At this point, the dosage of each solution was 70 μl per rat, where the dosages of mannitol and each peptide were 20 μCi/kg and 2.5 mg/kg, respectively.
(§9) Prior to the nasal administration, each rat was anesthetized to implant a cannula into the jugular vein of it. The solution was taken into the nostrils of the rat through a micropipette (Eppendorf) with caution as not to affect the nasal mucous membrane, while the rat was lying on the back to rest its head sideways against the wall.
(§10) 250 μl of blood was collected from each rat in 10, 20, 40, 60, 120, 180, 240 and 360 minutes after administration of the solution through jugular vein cannulation. The blood was subjected to centrifugal separation at 13,000 rpm for 10 minutes to obtain 100 μl of plasma. A scintillation cocktail solution was added to the plasma. Then, an LS6500 Universal counter (Beckman Coulter, Brea, Calif., USA) was used to measure the radiation quantity for the quantitative analysis of mannitol.
(§11) The mannitol concentration in blood from the rats of each group is graphed in FIG. 1. Table 1 presents the pharmacokinetic parameters, that is, AUC, Cmax, Tmax, and T1/2 of mannitol.

nasal mucous membrane = assay: Nasal administration of 3H-mannitol with or without peptide to rats; mannitol concentration in blood (mucous membrane permeability); settings: nasal, rats, peptide 2.5 mg/kg
Description: as §1, §2, §3, §4, §5, §6, §7, §8, §9, §10, §11

[1] = preparation group containing mannitol and the peptide, for nasal administration
[2] = buffer solution that is slightly acid (pH 5.0), neutral, and basic; cited from earlier work

OC[C@@H](O)[C@@H](O)[C@H](O)[C@H](O)CO [Mannitol, mannitol] gave an AUC(0-t) (in vivo) of 0.101 ng·h/mL, a Cmax (in vivo) of 0.0306 ± 0.00602 ng/mL and a Tmax (in vivo) of 0.583 h. The half-life (in vivo) was 3.59 ± 0.0515 h.
With Ac-FCIGRL [Ac-FCIGRL] the “difference in the blood mannitol concentration versus mannitol alone” value (nasal mucous membrane) was “no significant difference”.
With Ac-FCIGRL-NH2 [Ac-FCIGRL-NH2] the “solubility of the peptide” value [1] was “such a low solubility of the peptide as to make nasal administration of the peptide impossible”.
In the case of FCIGRL-NH2 [FCIGRL-NH2], the “AUC0-360min of mannitol relative to the administration group of mannitol alone” value (nasal mucous membrane; p<0.01) is reported as 3.63 times and the “Cmax of mannitol relative to the administration group of mannitol alone” value (nasal mucous membrane; p<0.01) is reported as 2.68 times.
For “H-FCIGRL-OH [FCIGRL, Phe-Cys-Ile-Gly-Arg-Leu]”, the “difference in the blood mannitol concentration versus mannitol alone” value (nasal mucous membrane) is listed as “no significant difference” and the “maintenance of the intact form of peptide over time” value [2] is listed as “cannot maintain the intact form of peptide over time”.
